Measurements from US11999727B2 (Tango Therapeutics, Inc., priority 2020, dated 2024).

Tests used:
PRMT5 [1] = biological target: T1, PRMT5 (Homo sapiens, UniProt O14744); assay: PRMT5 biochemical IC50 assay with SAM as cofactor; details: PRMT5, SAM as cofactor; read-out: SAM IC50
T1 construct: purchased Viva (custom protein)

PRMT5 [2] = biological target: T1, PRMT5; assay: PRMT5 biochemical IC50 assay with no cofactor; details: PRMT5, no cofactor
Source text: Table 1 indicates IC50 values (μM) against PRMT5 for exemplary compounds in the presence of SAM as cofactor, with no cofactor, and with MTA as cofactor, respectively (columns 4-6). […] Ki values can be calculated from the IC50 values as described in the Examples section. As detailed in the Examples section, for the assay performed in the presence of SAM, IC50=Ki×1.5 (Ki=IC50/1.5).

PRMT5 [3] = biological target: T1, PRMT5; assay: PRMT5 biochemical IC50 assay with MTA as cofactor; details: PRMT5, MTA as cofactor; read-out: MTA IC50
[4] = system: HAP1 MTAP-intact cell line; assay: SDMA in-cell western assay, HAP1 MTAP-intact; format: cell-based; details: Homo sapiens, HAP1, SDMA in-cell western, HAP1 MTAP-intact; read-out: MTAP HAP1 intact IC50
Procedure, shortened: (§1)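 Isogenic HAP1 pair: the MTAP-intact line expresses endogenous MTAP, and the deleted line is MTAP-null. Symmetric dimethylarginine was detected by in-cell western and IC50 values derived for each line.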

[5] = system: HAP1 MTAP-deleted cell line; assay: SDMA in-cell western assay, HAP1 MTAP-deleted; format: cell-based; details: for IC50: Homo sapiens, HAP1, SDMA in-cell western, HAP1 MTAP-deleted; for MTAP intact/deleted ratio: IC50 ratio HAP1 MTAP-intact / HAP1 MTAP-deleted, SDMA in-cell western
Procedure, shortened: as §1

[6] = system: HAP1 MTAP-deleted cell line; assay: Viability assay, MTAP-deleted cell line; format: cell-based; details: Homo sapiens, read-out: HAP1 MTAP deleted viability
Source text: Table 1 additionally indicates IC50 values in a viability assay for the MTAP-deleted cell line (column 10), indicating the effect of treatment with compound on cell survival.

[7] = read-out: HAP1 MTAP deleted IC50
[8] = HAP1, viability assay, HAP1 MTAP-deleted
[9] = read-out: No Cofactor/ rel IC50
[10] = read-out: HAP 1 MTAP deleted IC50
[11] = HAP1, viability, HAP1 MTAP-deleted cell line
[12] = HAP1, viability IC50, MTAP-deleted cell line
[13] = HAP1, viability assay, MTAP-deleted cell line

T1 sequence (O14744 whole entry): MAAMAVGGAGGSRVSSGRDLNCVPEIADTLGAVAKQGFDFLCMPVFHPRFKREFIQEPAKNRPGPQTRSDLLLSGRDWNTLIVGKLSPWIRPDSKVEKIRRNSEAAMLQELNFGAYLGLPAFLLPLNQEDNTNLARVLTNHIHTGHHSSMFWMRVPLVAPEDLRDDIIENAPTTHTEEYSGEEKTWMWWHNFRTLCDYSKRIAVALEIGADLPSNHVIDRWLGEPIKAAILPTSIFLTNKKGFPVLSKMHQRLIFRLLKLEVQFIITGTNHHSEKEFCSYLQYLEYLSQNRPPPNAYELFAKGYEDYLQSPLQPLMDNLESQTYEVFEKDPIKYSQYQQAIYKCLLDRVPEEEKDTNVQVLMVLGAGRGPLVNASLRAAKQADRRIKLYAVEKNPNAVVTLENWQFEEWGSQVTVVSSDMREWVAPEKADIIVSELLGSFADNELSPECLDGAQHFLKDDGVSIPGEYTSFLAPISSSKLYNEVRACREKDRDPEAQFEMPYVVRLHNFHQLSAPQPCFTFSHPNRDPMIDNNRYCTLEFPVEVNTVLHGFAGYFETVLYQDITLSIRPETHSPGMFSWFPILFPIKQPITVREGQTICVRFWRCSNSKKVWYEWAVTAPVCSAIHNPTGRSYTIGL
T1 sequence (Q9BQA1 whole entry partner): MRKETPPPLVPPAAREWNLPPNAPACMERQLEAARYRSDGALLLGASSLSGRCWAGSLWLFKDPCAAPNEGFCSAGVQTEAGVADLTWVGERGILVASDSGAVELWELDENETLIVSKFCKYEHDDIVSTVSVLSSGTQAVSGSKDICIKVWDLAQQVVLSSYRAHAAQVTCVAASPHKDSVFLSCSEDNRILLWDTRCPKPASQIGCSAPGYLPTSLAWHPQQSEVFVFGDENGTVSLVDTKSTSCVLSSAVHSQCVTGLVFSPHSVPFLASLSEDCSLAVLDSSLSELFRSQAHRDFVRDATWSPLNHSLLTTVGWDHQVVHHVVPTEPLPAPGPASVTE

Row | Structure (SMILES) | IC50 (PRMT5 [1]) | IC50 (PRMT5 [2]; read-out: No Cofactor/rel IC50) | IC50 (PRMT5 [3]) | IC50 [4] | IC50 [5, 7] | MTAP intact/deleted ratio [5] | IC50 [6, 8] | IC50 (PRMT5 [2]; [9]) | IC50 [5, 10] | IC50 [6, 11] | IC50 [6, 12] | IC50 [6, 13]
1 | CCc1cc(NC(=O)C(=O)N2C[C@H](C)CC[C@H]2c2ccc(-c3cncs3)cc2)cnc1N (single isomer, unassigned) [Compound 841, N-(6-amino-5-ethylpyridin-3-yl)-2-(5-methyl-2-(4-(thiazol-5-yl)phenyl)piperidin-1-yl)-2-oxoacetamide] | 50 to 500 nM | < 50 nM | < 50 nM | 100 to 1000 nM | < 100 nM | A (an IC50 ratio greater than or equal to 10 fold) | < 1000 nM | – | – | – | – | –
2 | COc1ncc(NC(=O)C(=O)N2C[C@@H](C)CC[C@@H]2c2ccc3sc(CCN(C)C)nc3c2)cc1C(N)=O (racemic) [Compound 1281, 5-[[2-[(2R,5S)-2-[2-[2-(dimethylamino)ethyl]-1,3-benzothiazol-5-yl]-5-methyl-1-piperidyl]-2-oxo-acetyl]amino]-2-methoxy-pyridine-3-carboxamide] | 50 to 500 nM | – | < 50 nM | 100 to 1000 nM | – | A (an IC50 ratio greater than or equal to 10 fold) | – | 50 to 500 nM | < 100 nM | < 1000 nM | – | –
3 | CCc1cc(NC(=O)C(=O)N2C[C@H](C)C(F)(F)C[C@H]2c2ccc(F)c(F)c2)cnc1N (single isomer, unassigned) [Compound 728] | > 500 nM | > 500 nM | > 500 nM | > 1000 nM | > 1000 nM | C (an IC50 ratio of less than 3 fold) | > 10000 nM | – | – | – | – | –
4 | Cc1cc(NC(=O)C(=O)N2C[C@H](C)CC[C@H]2c2ccc3sccc3c2)cnc1N (single isomer, unassigned) [Compound 617] | > 500 nM | > 500 nM | > 500 nM | > 1000 nM | – | A (an IC50 ratio greater than or equal to 10 fold) | – | – | 100 to 1000 nM | – | > 10000 nM | –
5 | Cc1cc([C@H]2CC[C@H](C)CN2C(=O)C(=O)Nc2cnc(N)c(C)c2)ccc1O (single isomer, unassigned) [Compound 551] | > 500 nM | > 500 nM | > 500 nM | > 1000 nM | – | C (an IC50 ratio of less than 3 fold) | – | – | > 1000 nM | – | > 10000 nM | –
6 | Cc1cnn(-c2ccc([C@@H]3CC[C@@H](C)CN3C(=O)C(=O)Nc3cncc(C(N)=O)c3)cc2)c1 (racemic) [Compound 218, rac-5-{2-[(2R,5S)-5-Methyl-2-[4-(4-methyl-11H-pyrazol-1-yl)phenyl]piperidin-1-yl]-2-oxoacetamido}pyridine-3-carboxamide] | 50 to 500 nM | 50 to 500 nM | < 50 nM | > 1000 nM | < 100 nM | A (an IC50 ratio greater than or equal to 10 fold) | – | – | – | – | – | 1000 to 10000 nM
7 | COc1ncc(NC(=O)C(=O)N2C[C@@H](C)CC[C@@H]2c2ccc3nn([C@H]4CCN(C)C4)cc3c2)cc1C(N)=O (racemic) [Compound 1318, 2-Methoxy-5-[[2-oxo-2-[rac-(2R,5S)-5-methyl-2-[2-[rac-(3S)-1-methylpyrrolidin-3-yl]indazol-5-yl]-1-piperidyl]acetyl]amino]pyridine-3-carboxamide] | 50 to 500 nM | – | < 50 nM | 100 to 1000 nM | – | A (an IC50 ratio greater than or equal to 10 fold) | – | < 50 nM | < 100 nM | < 1000 nM | – | –
8 | C[C@H]1CC[C@H]([C@H]2CC[C@@H](O)CC2)N(C(=O)C(=O)Nc2cncc(C(N)=O)c2)C1 (single isomer, unassigned) [Compound 382] | > 500 nM | > 500 nM | > 500 nM | > 1000 nM | > 1000 nM | C (an IC50 ratio of less than 3 fold) | – | – | – | – | – | > 10000 nM
9 | Cc1cc(NC(=O)C(=O)N2C[C@@H](C)CC[C@@H]2c2cnc3[nH]ncc3c2)cnc1N (single isomer, unassigned) [Compound 573] | > 500 nM | > 500 nM | > 500 nM | > 1000 nM | – | C (an IC50 ratio of less than 3 fold) | – | – | > 1000 nM | – | > 10000 nM | –
10 | CC(=O)Nc1ccc([C@@H]2CC[C@@H](C)CN2C(=O)C(=O)Nc2cncc(C(N)=O)c2)s1 (single isomer, unassigned) [Compound 704] | > 500 nM | 50 to 500 nM | < 50 nM | > 1000 nM | – | C (an IC50 ratio of less than 3 fold) | – | – | > 1000 nM | – | > 10000 nM | –
11 | C[C@@H]1CC[C@@H](c2cc3[nH]ncc3s2)N(C(=O)C(=O)Nc2cncc(C(N)=O)c2)C1 (single isomer, unassigned) [Compound 868, 5-(2-(5-methyl-2-(1H-thieno[3,2-c]pyrazol-5-yl)piperidin-1-yl)-2-oxoacetamido)nicotinamide] | > 500 nM | > 500 nM | > 500 nM | > 1000 nM | > 1000 nM | C (an IC50 ratio of less than 3 fold) | > 10000 nM | – | – | – | – | –
12 | Cc1cc(NC(=O)C(=O)N2CCCC[C@H]2C2CCCC2)cnc1N (single isomer, unassigned) [Compound 340] | 50 to 500 nM | 50 to 500 nM | < 50 nM | > 1000 nM | 100 to 1000 nM | A (an IC50 ratio greater than or equal to 10 fold) | – | – | – | – | – | 1000 to 10000 nM
13 | COc1ncc(NC(=O)C(=O)N2C[C@H](C)CC[C@H]2c2ccc3c(c2)CC(=O)N3)cc1C(N)=O (single isomer, unassigned) [Compound 453] | > 500 nM | > 500 nM | > 500 nM | > 1000 nM | > 1000 nM | C (an IC50 ratio of less than 3 fold) | – | – | – | – | – | > 10000 nM
14 | Cc1cccc([C@H]2CC[C@H](C)CN2C(=O)C(=O)Nc2cncc(C(N)=O)c2)c1 (single isomer, unassigned) [Compound 219] | 50 to 500 nM | < 50 nM | < 50 nM | > 1000 nM | < 100 nM | A (an IC50 ratio greater than or equal to 10 fold) | – | – | – | – | – | 1000 to 10000 nM
15 | CCc1cc(NC(=O)C(=O)N2CC(C)CCC2c2ccc3sc(C4CCN(C)CC4C)nc3c2)cnc1N (racemic) [Compound 1373, N-(6-amino-5-ethyl-3-pyridyl)-2-oxo-2-[rac-(2R,5S)-5-methyl-2-[2-[rac-(3S,4S)-1,3-dimethyl-4-piperidyl]-1,3-benzothiazol-5-yl]-1-piperidyl]acetamide] | < 50 nM | – | < 50 nM | < 100 nM | – | B (an IC50 ratio greater than or equal to 3 fold but lower than 10 fold) | – | < 50 nM | < 100 nM | < 1000 nM | – | –
16 | C[C@H]1CC[C@H](c2cc(Cl)cc(C(F)(F)F)c2)N(C(=O)C(=O)Nc2cncc(C(N)=O)c2)C1 (single isomer, unassigned) [Compound 646] | < 50 nM | 50 to 500 nM | < 50 nM | > 1000 nM | – | A (an IC50 ratio greater than or equal to 10 fold) | – | – | 100 to 1000 nM | – | 1000 to 10000 nM | –
17 | Cc1cc(NC(=O)C(=O)N2CCCCC2c2cccc3ocnc23)cnc1N (stereo not shown) [Compound 140, N-(6-Amino-5-methyl-3-pyridyl)-2-[2-(1,3-benzoxazol-4-yl)-1-piperidyl]-2-oxo-acetamide] | > 500 nM | – | > 500 nM | > 1000 nM | – | A (an IC50 ratio greater than or equal to 10 fold) | – | > 500 nM | 100 to 1000 nM | – | – | > 10000 nM
18 | CCc1cc(NC(=O)C(=O)N2C[C@@H](C)[C@H](OC(C)C)C[C@@H]2c2ccc3scnc3c2)cnc1N (racemic) [Compound 1343, N-(6-Amino-5-ethyl-3-pyridyl)-2-[(2S,4S,5S)-2-(1,3-benzothiazol-5-yl)-4-isopropoxy-5-methyl-1-piperidyl]-2-oxo-acetamide] | 50 to 500 nM | – | 50 to 500 nM | 100 to 1000 nM | – | A (an IC50 ratio greater than or equal to 10 fold) | – | 50 to 500 nM | < 100 nM | < 1000 nM | – | –
19 | Cc1cc(NC(=O)C(=O)N2CCCCC2c2csc3ccccc23)cnc1N (stereo not shown) [Compound 123, N-(6-Amino-5-methyl-3-pyridyl)-2-[2-(benzothiophen-3-yl)-1-piperidyl]-2-oxo-acetamide] | 50 to 500 nM | – | < 50 nM | > 1000 nM | – | A (an IC50 ratio greater than or equal to 10 fold) | – | 50 to 500 nM | 100 to 1000 nM | – | – | 1000 to 10000 nM
